The source of these data is patent publication US20230295058A1, “SYSTEMS AND METHODS FOR GENERATION OF HYPERPOLARIZED COMPOUNDS USING PARAHYDROGEN” (NVISION IMAGING TECHNOLOGIES GMBH, priority 2020, published 2023).

Structures are written as SMILES. Where two headings read alike, the source gives them in different places.

The conditions of data set [1]: cited from earlier work.
For a further data set, the system named is variety of cell lines. The data set is described as follows: cytotoxicity of clean fumarate samples following precipitation. Format: cell-based. To be noted: precipitated, washed and redissolved samples, even at high concentrations (FIG. 10). The protocol:
FIG. 10 depicts the results of cytotoxicity experiments performed using samples of precipitated, washed and redissolved sodium fumarate generated in accordance with disclosed embodiments
The clean fumarate samples following precipitation were tested for cytotoxicity using a variety of cell lines. FIG. 10 depicts the result of the cell line experiments.

As to `CC(=O)O` [acetic acid], the entries for the “maximal mole fraction in n-heptane” value in data set [1] (14.8° C.) and in data set [1] (−29.2° C.) were 0.935 and 0.02, respectively.

Regarding `O=C([O-])/C=C/[13C](=O)[O-].[Na+].[Na+]` [sodium fumarate, sodium fumarate-1-^13C], in the data set on variety of cell lines, the cytotoxicity entry is listed as “No toxicity was visible”.
